Results from US20240197869A1, “HYPERACTIVATORS OF MAMMALIAN DENDRITIC CELLS” (Corner Therapeutics, Inc., priority 2021, published 2024).

Key:
[1] = test system: canine peripheral blood mononuclear cells (PBMCs); experiment: Viability of canine PBMCs (CellTiter-Glo); assay type: cell-based; details: lipid combined with R848, 2 days, relative to R848 alone
Experimental: Isolation of PBMCs from Whole Blood. PBMCs were isolated from whole blood using density gradient centrifugation with Ficoll-Paque PLUS (Cytivia). Whole blood was diluted 1:1 with PBS, layered on top of Ficoll-Paque PLUS and centrifuged at 1000×g for 30 minutes at room temperature. PBMCs were collected, washed twice in PBS, and incubated with Ack lysis buffer (Lonza) to remove any remaining red blood cells.
Cell Culture and Stimulation. […] Cells were plated at 1×10^5 (canine cells) or 1×10^6 (human cells) per well in 96-well flat bottom tissue culture plates. Lyophilized Vaccigrade R848 (Invivogen) was reconstituted and diluted according to manufacturer's recommendations and added to cells at a final concentration of 1 μg/mL.
Quantification of Cell Viability.

[2] = Particle size by Dynamic Light Scattering (DLS); assay type: physicochemical; details: particles of 22:0 Lyso PC and KP407 by solvent evaporation, after 0.45 um filtration
Excerpt: Particle size was quantified by Dynamic Light Scattering (DLS).

[3] = test system: murine, FLT3L-differentiated DC; experiment: Antigen uptake and presentation assay; assay type: cell-based, mouse
Experimental: Antigen uptake and presentation assay. To examine antigen uptake and the endocytic ability of BMDCs, pHrodo™ Red Dextran 10,000 MW was used (ThermoFisher). Briefly, FLT3L-derived BMDCs previously cultured with media alone, or treated for 24 hours with R848 alone or in combination with 22:0 Lyso PC, were incubated with pHrodo™ Red Dextran (40 ug/ml) for 45 minutes at 37° C., or at 4° C. (as a control for surface binding of the antigen). BMDCs were then washed and stained with Live/Dead Fixable Violet dye (ThermoFisher) to distinguish living cells from dead cells. Cells were then fixed with BD fixation solution and resuspended in MACS buffer. Red (APC) fluorescence of live cells was measured by flow cytometry. Fluorescence values of BMDCs incubated at 37° C. were reported as Mean Fluorescence Intensity (MFI) of pHrodo™ Red Dextran associated cells as normalized to MFI of pHrodo™ Red Dextran associated cells incubated at 4° C. To measure the efficiency of OVA peptide presentation on MHC-I, FLT3L-BMDCs were treated as described above and incubated with Endofit-OVA protein (0.5 mg/ml) for 1 hour at 37° C. […] The percentage of cells associated with the OVA peptide on MHC-I was calculated by flow cytometry. Data were acquired on a Symphony A3 flow cytometer (Becton-Dickenson) and analyzed with FlowJo software (Becton-Dickenson). […]

[4] = test system: human moDC; experiment: Viability of human moDC with surfactant formulations of 22:0 Lyso PC; assay type: cell-based; details: solvent evaporation method with KP407, filtered, target 82.5 uM + R848
Experimental: Formulation of 22:0 Lyso PC with poloxamers. […] 22:0 Lyso PC was resuspended in the surfactant solution and agitated at 4° C. for an hour. Solutions were then brought to room temperature to form micelles. Using 10× concentrated PBS, salts were added to the solution to stabilize molecular interactions and provide physiologically relevant osmolarity. Lipid solutions were either left unfiltered or filtered through a pore size of 0.45 um to remove insoluble lipid flakes. Lipids were further diluted and added onto human moDC cell cultures along with 1 ug/mL R848. Targeted lipid concentrations were based on the scenario where the lipid is fully bio-available prior to filtration. However, filtration of insoluble lipid reduces the bio-available supply of lipid. Thus, IL-1beta as a measure of hyperactivity can be used as an indicator of 22:0 Lyso PC incorporation into micelles and thus into solution. One day after hyperactivation, cell culture supernatants are collected to measure cytokine secretion, and cells are used to measure viability via Cell Titer-Glo.
Salts are added to the solution to stabilize the molecular interactions and bring the solution to a physiologically relevant osmolarity. The solutions are then either left unfiltered or filtered through a pore size of 0.45 um to remove insoluble lipid flakes or particle aggregates. […]

[5] = test system: human monocyte-derived dendritic cells (moDCs); experiment: PAMP screen: IL-1β secretion by human moDCs with PRR agonist and 22:0 Lyso PC; assay type: cell-based; details: No PAMP, 20 μM 22:0 Lyso PC alone, human moDCs
Experimental: Pathogen-Associated Molecular Pattern (PAMP) Screen. Innate immune signaling pathway agonists were purchased from Invivogen. Lyophilized stocks were reconstituted and stored according to manufacturer's instructions and at recommended concentrations. […] Innate immune signaling agonists were diluted in R10 media to the manufacturer's recommended working concentration and then added onto cells. 22:0 Lyso PC was then reconstituted from a lyophilized stock in R10 and then further diluted. The lipid was added onto cells at a final concentration of 20 μM. Cells were incubated for 2 days, then cultures were collected for endpoint analyses.
Quantification of IL-1beta Secretion. IL-1beta secretion was assessed using the ELISA MAX Deluxe Set Human IL-1beta kit (Biolegend). ELISAs were performed according to manufacturer's instructions with the following modifications: i) total sample volume for incubation was reduced from […] the top standard was prepared at […], with two-fold dilutions to […]; and iii) sample incubation was completed overnight at 4 C on an orbital shaker. […] To determine IL-1beta concentration in supernatants, sample IL-1beta concentrations were interpolated using a standard curve via 4PL analysis on GraphPad Prism 9 (GraphPad Software). The interpolated results of samples were then adjusted for any dilutions made to the supernatant.

Compound: CCCCCCCCCCCCCCCCCCCCCC(=O)OC[C@@H](O)COP(=O)([O-])OCC[N+](C)(C)C [22:0 LYSO PC, 1-behenoyl-2-hydroxy-sn-glycero-3-phosphocholine]
- relative cell viability (in words) [1]: remain viable
- relative cell viability (in words) ([1]; listed as 22:0 LYSO): did not significantly reduce relative cell viability
- particle diameter [2]: approximately 1500 nm
- OVA antigen processing and cross-presentation on MHC-I (in words) ([3]; R848 + lipid): did not interfere with these functions
- antigen uptake (Red pHrodo dextran) (in words) ([3]; R848 with vs without lipid, 24 h): does not compromise the antigen uptake capacity of DCs
- reduction of cell viability [4]: approximately 25%
- IL-1β secretion ([5]; Table 1-7, 10 donors): 1.1 pg/mL
- IL-1β secretion ([5]; Table 1-8): 1.0 pg/mL
